This assay concerns the target T1, full-length MALT1 protein His-MALT1(1-824) (Homo sapiens, UniProt Q9UDY8).
T1 construct: full-length MALT1 protein His-MALT1(1-824); His (N); made in house; host or cells: baculovirus-infected insect cells
T1 sequence (Q9UDY8 1-824): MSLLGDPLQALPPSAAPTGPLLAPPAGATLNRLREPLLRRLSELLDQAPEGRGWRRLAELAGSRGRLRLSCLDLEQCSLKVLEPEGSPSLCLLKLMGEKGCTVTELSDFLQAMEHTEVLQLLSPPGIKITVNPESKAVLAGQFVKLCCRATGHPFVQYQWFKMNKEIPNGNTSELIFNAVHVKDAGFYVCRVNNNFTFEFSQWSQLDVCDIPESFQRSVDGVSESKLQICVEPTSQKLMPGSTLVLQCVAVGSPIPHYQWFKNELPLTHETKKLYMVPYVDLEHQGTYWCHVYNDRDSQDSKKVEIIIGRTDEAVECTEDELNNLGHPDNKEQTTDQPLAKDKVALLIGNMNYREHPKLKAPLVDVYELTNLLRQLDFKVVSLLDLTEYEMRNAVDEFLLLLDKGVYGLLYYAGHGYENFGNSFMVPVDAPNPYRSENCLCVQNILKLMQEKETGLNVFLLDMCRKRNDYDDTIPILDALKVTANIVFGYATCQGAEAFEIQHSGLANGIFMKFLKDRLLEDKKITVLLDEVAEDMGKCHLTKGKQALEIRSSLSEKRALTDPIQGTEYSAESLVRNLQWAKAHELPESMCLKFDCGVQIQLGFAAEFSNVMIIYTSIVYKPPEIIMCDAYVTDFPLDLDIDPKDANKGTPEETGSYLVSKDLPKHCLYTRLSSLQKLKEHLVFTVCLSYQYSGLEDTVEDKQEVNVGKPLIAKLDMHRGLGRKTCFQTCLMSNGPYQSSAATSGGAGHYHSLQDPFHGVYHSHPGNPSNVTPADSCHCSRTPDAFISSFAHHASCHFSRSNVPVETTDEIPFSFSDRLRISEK
Put plainly: MALT1 protease assay, Assay 2 (1 nM MALT1, Ac-LRSR-AMC substrate). In kind it is biochemical. The note with it: 1 nM MALT1, 50 μM Ac-LRSR-AMC, 2 h pre-incubation, 8 hr incubation at RT. How it is done: MALT1 protease activity was assessed in an in vitro assay using a tetrapeptide as substrate and full-length MALT1 protein His-MALT1(1-824) purified from baculovirus-infected insect cells. The tetrapeptide substrate is Ac-LRSR-AMC (SM Biochemicals) with Km measured at around 100 μM.
The final assay buffer includes 1 nM (Assay 2) or 2 nM (Assay 1) of MALT1 full-length protein, 50 μM Ac-LRSR-AMC substrate, 50 mM Tris pH 7.5, 600 mM Sodium Citrate, 1 mM DTT, 1 mM EDTA, and 0.05% BSA in 384-well plate format using black microtiter square well plates (Optiplate 384-F, Perkin Elmer).
Test compounds were dissolved in 100% DMSO at stock of 10 mM, with final DMSO concentration 0.1%. Test compounds were pre-incubated with MALT1 protein for 2 h at room temperature. Substrate was added after the pre-incubation and fluorescence signal was measured using Envision at excitation 355 nm and emission 460 nm after 8 hr incubation at RT. Increase in the assay signal was linear over this period and proportional with increase in the enzyme content.
The fluorescence units were transformed to percentage of remaining activity by using the high control (HC, median of fluorescence signal from wells containing MALT1 protein, substrate, and DMSO) and low control (LC, median of fluorescence signal from wells with substrate only) with the formula below: […]
IC50 and Hill coefficients were obtained using Graph Pad Prism (Graph Pad software, Inc, USA) with non-linear regression analysis.

The term IC50 denotes the concentration needed to halve the response being measured. Read a low IC50 as higher potency. Take `CC1(C)O[C@H](C(=O)Nc2cnc(-n3nccn3)c(Cl)c2)c2cnc3cc(Cl)nn3c21` (single isomer, unassigned) [Example 71, 2-chloro-N-(5-chloro-6-(2H-1,2,3-triazol-2-yl)pyridin-3-yl)-8,8-dimethyl-6,8-dihydrofuro[3,4-e]pyrazolo[1,5-a]pyrimidine-6-carboxamide]: the IC50 lay within 100 to 1000 nM. For `CC1(C)CC(C(=O)Nc2cnc(C(=O)N3CC(F)(F)C3)c(C(F)F)c2)c2cnc3cc(Cl)nn3c21` (centres unmarked) [Example 174, 2-chloro-N-(6-(3,3-difluoroazetidine-1-carbonyl)-5-(difluoromethyl)pyridin-3-yl)-8,8-dimethyl-7,8-dihydro-6H-cyclopenta[e]pyrazolo[1,5-a]pyrimidine-6-carboxamide], the concentration for half-maximal inhibition (IC50) lay in the range of 100 to 1000 nM. `Cc1nnn(-c2ncc(NC(=O)C3CC(C)(C)c4c3cnc3cc(Cl)nn43)cc2Cl)n1` (single isomer, unassigned) [Example 141, 2-chloro-N-(5-chloro-6-(5-methyl-2H-tetrazol-2-yl)pyridin-3-yl)-8,8-dimethyl-7,8-dihydro-6H-cyclopenta[e]pyrazolo[1,5-a]pyrimidine-6-carboxamide] came in with an IC50 not below 1000 nM.

The molecule `CC1(C)CC(C(=O)Nc2cc(C(F)F)c(-c3c[nH]cn3)c(=O)[nH]2)c2cnc3cc(Cl)nn3c21` (centres unmarked) [Example 48, 2-chloro-N-(4-(difluoromethyl)-5˜(1H-imidazol-4-yl)-6-oxo-1,6-dihydropyridin-2-yl)-8,8-dimethyl-7,8-dihydro-6H-cyclopenta[e]pyrazolo[1,5-a]pyrimidine-6-carboxamide] returned a 50% inhibitory concentration (IC50) of 10 to 100 nM. Consider `CC1(C)CC(C(=O)Nc2cnc(OC3CC3)c(Cl)c2)c2cnc3cc(Cl)nn3c21` (single isomer, unassigned) [Example 74, 2-chloro-N-(5-chloro-6-cyclopropoxypyridin-3-yl)-8,8-dimethyl-7,8-dihydro-6H-cyclopenta[e]pyrazolo[1,5-a]pyrimidine-6-carboxamide], for which the concentration for half-maximal inhibition (IC50) is not below 1000 nM.

Molecule `Cc1cc(NC(=O)[C@@H]2CC(C)(C)c3c2cnc2cc(F)nn32)cnc1-n1nccn1` (single isomer, unassigned) [Example 182] had a 50% inhibitory concentration (IC50) not below 1000 nM. Consider `CCNC(=O)c1ncc(NC(=O)C2CC(C)(C)c3c2cnc2cc(Cl)nn32)cc1C(F)(F)F` (centres unmarked) [Example 115, 2-chloro-N-(6-(ethylcarbamoyl)-5˜(trifluoromethyl)pyridin-3-yl)-8,8-dimethyl-7,8-dihydro-6H-cyclopenta[e]pyrazolo[1,5-a]pyrimidine-6-carboxamide], for which the concentration for half-maximal inhibition (IC50) lay in the range of 10 to 100 nM.

Molecule `CC1(C)CC(C(=O)Nc2cnc(OC(F)F)c(Cl)c2)c2cnc3cc(F)nn3c21` (single isomer, unassigned) [Example 76, N-(5-chloro-6-(difluoromethoxy)pyridin-3-yl)-2-fluoro-8,8-dimethyl-7,8-dihydro-6H-cyclopenta[e]pyrazolo[1,5-a]pyrimidine-6-carboxamide] had an IC50 not below 1000 nM.

`CC1(C)CC(C(=O)Nc2cnc(C(=O)NC3CC3)c(C(F)(F)F)c2)c2cnc3cc(Cl)nn3c21` (centres unmarked) [Example 112, 2-chloro-N-(6-(cyclopropylcarbamoyl)-5˜(trifluoromethyl)pyridin-3-yl)-8,8-dimethyl-7,8-dihydro-6H-cyclopenta[e]pyrazolo[1,5-a]pyrimidine-6-carboxamide] returned an IC50 of 100 to 1000 nM. In turn, `CC1(C)C[C@@H](C(=O)Nc2cnc(OC(F)F)c(C#N)c2)c2cnn3cc(C(F)F)nc3c21` (single isomer, unassigned) [Example 198, N-(5-cyano-6-(difluoromethoxy)pyridin-3-yl)-2-(difluoromethyl)-9,9-dimethyl-8,9-dihydro-7H-cyclopenta[d]imidazo[1,2-b]pyridazine-7-carboxamide] registered an IC50 not below 1000 nM.

Molecule `CC1(C)CC(C(=O)Nc2cnc(OC(F)F)c(C#N)c2)c2cnc3cc(C(F)F)nn3c21` (single isomer, unassigned) [Example 126, N-(5-cyano-6-(difluoromethoxy)pyridin-3-yl)-2-(difluoromethyl)-8,8-dimethyl-7,8-dihydro-6H-cyclopenta[e]pyrazolo[1,5-a]pyrimidine-6-carboxamide] gave an IC50 of 10 to 100 nM. The value for `Cn1nnc(-c2ncc(NC(=O)C3CC(C)(C)c4c3cnc3cc(Cl)nn43)cc2Cl)n1` (single isomer, unassigned) [Example 143, 2-chloro-N-(5-chloro-6-(2-methyl-2H-tetrazol-5-yl)pyridin-3-yl)-8,8-dimethyl-7,8-dihydro-6H-cyclopenta[e]pyrazolo[1,5-a]pyrimidine-6-carboxamide] was 100 to 1000 nM.

Molecule `CC(C)(O)c1ncc(NC(=O)C2CC3(CCC3)c3c2cnc2cc(F)nn32)cc1C(F)(F)F` (single isomer, unassigned) [Example 153, 2′-fluoro-N-(6-(2-hydroxypropan-2-yl)-5-(trifluoromethyl)pyridin-3-yl)-6′,7′-dihydrospiro[cyclobutane-1,8′-cyclopenta[e]pyrazolo[1,5-a]pyrimidine]-6′-carboxamide] gave an IC50 not below 1000 nM.

The molecule `C[C@@]1(C(F)(F)F)C[C@@H](C(=O)Nc2cnc(-n3nccn3)c(Cl)c2)c2cnc3cc(F)nn3c21` (single isomer, unassigned) [Example 186] had an IC50 of 100 to 1000 nM. As for `CC1(C)C[C@@H](C(=O)Nc2cnc(OC(F)F)c(Cl)c2)c2cnn3cc(Cl)nc3c21` (single isomer, unassigned) [Example 190, 2-chloro-N-(5-chloro-6-(difluoromethoxy)pyridin-3-yl)-9,9-dimethyl-8,9-dihydro-7H-cyclopenta[d]imidazo[1,2-b]pyridazine-7-carboxamide], the figure is 100 to 1000 nM; as for `Cc1cc(NC(=O)[C@H]2CC(C)(C)c3c2cnc2cc(F)nn32)cnc1-n1nccn1` (single isomer, unassigned) [Example 183], 10 to 100 nM. In the case of `CN(C(=O)c1ncc(NC(=O)[C@@H]2CC(C)(C)c3c2cnc2cc(Cl)nn32)cc1C(F)F)C1CC1` (single isomer, unassigned) [Example 72, 2-chloro-N-(6-(cyclopropyl(methyl)carbamoyl)-5-(difluoromethyl)pyridin-3-yl)-8,8-dimethyl-7,8-dihydro-6H-cyclopenta[e]pyrazolo[1,5-a]pyrimidine-6-carboxamide], the IC50 was not below 1000 nM. Regarding `CC1(C)CC(C(=O)Nc2cnc(C(=O)N3CC(F)(F)C3)c(C(F)(F)F)c2)c2cnc3cc(Cl)nn3c21` (centres unmarked) [Example 164, 2-chloro-N-(6-(3,3-difluoroazetidine-1-carbonyl)-5˜(trifluoromethyl)pyridin-3-yl)-8,8-dimethyl-7,8-dihydro-6H-cyclopenta[e]pyrazolo[1,5-a]pyrimidine-6-carboxamide], the concentration for half-maximal inhibition (IC50) fell in the range of 100 to 1000 nM. Molecule `CC1(C)C[C@@H](C(=O)Nc2ccnc(C(F)(F)F)c2)c2cnc3cc(C(F)F)nn3c21` (single isomer, unassigned) [Example 98, 2-(difluoromethyl)-8,8-dimethyl-N-(2-(trifluoromethyl)pyridin-4-yl)-7,8-dihydro-6H-cyclopenta[e]pyrazolo[1,5-a]pyrimidine-6-carboxamide] displayed a 50% inhibitory concentration (IC50) not below 1000 nM. The value for `CC1(C)C[C@@H](C(=O)Nc2cnc(OC3CC3)c(C#N)c2)c2cnc3cc(F)nn3c21` (single isomer, unassigned) [Example 80, N-(5-cyano-6-cyclopropoxypyridin-3-yl)-2-fluoro-8,8-dimethyl-7,8-dihydro-6H-cyclopenta[e]pyrazolo[1,5-a]pyrimidine-6-carboxamide] was not below 1000 nM.

Values taken from patent US12667572B2, “Tricyclic compounds useful in the treatment of cancer, autoimmune and inflammatory disorders” (SCHRÖDINGER, INC., priority 2021, dated 2026).
